Patent publication US20080009540A1, “Amorphous Atorvastatin Calcium” (priority 2004, published 2008)
Structures can show the parent of a compound that is named as a salt.

Experiments:
Assay type in all cases: physicochemical
[1] = Storage stability of amorphous atorvastatin calcium, Example 6 packaging (6 percent w/w water; nitrogen, silica gel)
Description: The following packaging procedure was followed: 1) amorphous atorvastatin calcium having a 6 percent w/w water content was initially packed in a polyethylene bag, which was then tied; 2) the tied polyethylene bag was placed in a black polyethylene bag with a silica gel pouch under a nitrogen atmosphere and then sealed; 3) the sealed black polyethylene bag was placed in a triple laminated bag along with a silica gel pouch, was purged with nitrogen, and sealed; and 4) the sealed laminated bag was stored in a HDPE drum.
table, where water was determined by the Karl Fischer method, and total organic impurities are expressed as area-percent, as determined by high performance liquid chromatography.

[2] = Storage stability of commercial-sized batch of amorphous atorvastatin calcium, Example 8 packaging
Description: A commercial-sized batch of amorphous atorvastatin calcium was packaged as follows:
a) amorphous atorvastatin calcium having a 6 percent w/w water content was initially placed into a clear polyethylene bag, air was removed, and the clear polyethylene bag was tied;
b) the tied clear polyethylene bag was placed into a black polyethylene bag along with a silica gel pouch and a package of oxygen absorbent, and then the black polyethylene bag was purged with nitrogen and sealed; and
c) the sealed black polyethylene bag was placed in a triple laminated bag along with a silica gel pouch, then the laminated bag was purged with nitrogen and sealed.

[3] = Storage stability of amorphous atorvastatin calcium, Example 7 packaging (2 percent w/w moisture; nitrogen, silica gel, oxygen absorbent)
Description: The following packaging procedure was followed: 1) amorphous atorvastatin calcium having a 2 percent w/w moisture content was placed in a white polyethylene bag, the bag was purged with nitrogen, and then the bag was tied; 2) the tied white polyethylene bag was placed into a black polyethylene bag, along with a silica gel pouch and a bag of oxygen absorbent, then the black bag was purged with nitrogen and sealed; 3) the sealed black polyethylene bag was placed into a triple laminated bag along with a silica gel pouch, and then the laminated bag was purged with nitrogen and sealed; and 4) the sealed laminated bag was stored in a HDPE drum.

[4] = 25° C. and 60% relative humidity, 2 Months
[5] = 25° C. and 60% relative humidity, 45 Days
[6] = 25° C. and 60% relative humidity, Initial
[7] = 40° C. and 75% relative humidity, 2 Months
[8] = 40° C. and 75% relative humidity, 45 Days
[9] = all three storage conditions, up to 2 Months
[10] = 25° C. and 60% relative humidity, 1 Month
[11] = 25° C. and 60% relative humidity, 2 Month
[12] = 25° C. and 60% relative humidity, 3 Month
[13] = 40° C. and 75% relative humidity, 1 Month
[14] = 40° C. and 75% relative humidity, 2 Month
[15] = 40° C. and 75% relative humidity, 3 Month
[16] = 40° C. and 75% relative humidity, 15 Days
[17] = 40° C. and 75% relative humidity, Initial

Compound: CC(C)c1c(C(=O)Nc2ccccc2)c(-c2ccccc2)c(-c2ccc(F)cc2)n1CC[C@@H](O)C[C@@H](O)CC(=O)O (relative stereo) [amorphous atorvastatin calcium, [R-(R*,R*)]-2-(4-fluorophenyl)-β,δ-dihydroxy-5-(1-methylethyl)-3-phenyl-4-[(phenylamino)carbonyl]-1H-pyrrole-1-heptanoic acid, calcium salt (2:1)]
- Total Impurities ([1]; 2 to 8° C., 2 Months): 0.47 area-percent
- Wt. Percent H2O ([1]; 2 to 8° C., 2 Months): 4.80 Wt. Percent
- Total Impurities ([1]; 2 to 8° C., 45 Days): 0.46 area-percent
- Wt. Percent H2O ([1]; 2 to 8° C., 45 Days): 4.50 Wt. Percent
- Total Impurities ([1]; 2 to 8° C., Initial): 0.37 area-percent
- Wt. Percent H2O ([1]; 2 to 8° C., Initial): 6.00 Wt. Percent
- Total Impurities [1, 4]: 0.49 area-percent
- Wt. Percent H2O [1, 4]: 3.97 Wt. Percent
- Total Impurities [1, 5]: 0.51 area-percent
- Wt. Percent H2O [1, 5]: 3.70 Wt. Percent
- Total Impurities [1, 6]: 0.37 area-percent
- Wt. Percent H2O [1, 6]: 6.00 Wt. Percent
- Total Impurities [1, 7]: 0.50 area-percent
- Wt. Percent H2O [1, 7]: 3.47 Wt. Percent
- Total Impurities [1, 8]: 0.61 area-percent
- Wt. Percent H2O [1, 8]: 3.49 Wt. Percent
- Total Impurities ([1]; 40° C. and 75% relative humidity, Initial, HPLC): 0.37 area-percent
- Wt. Percent H2O ([1]; 40° C. and 75% relative humidity, Initial, Karl Fischer): 6.00 Wt. Percent
- Change during the storage periods [1, 9]: did not change appreciably
- Total Impurities ([2]; 2 to 8° C., 1 Month): 0.37 area-percent
- Wt. Percent H2O ([2]; 2 to 8° C., 1 Month): 5.4 Wt. Percent
- Total Impurities ([2]; 2 to 8° C., 2 Month): 0.36 area-percent
- Wt. Percent H2O ([2]; 2 to 8° C., 2 Month): 5.3 Wt. Percent
- Total Impurities ([2]; 2 to 8° C., 3 Month): 0.34 area-percent
- Wt. Percent H2O ([2]; 2 to 8° C., 3 Month): 5.4 Wt. Percent
- Total Impurities ([2]; 2 to 8° C., Initial): 0.35 area-percent
- Wt. Percent H2O ([2]; 2 to 8° C., Initial): 5.4 Wt. Percent
- Total Impurities [2, 10]: 0.41 area-percent
- Wt. Percent H2O [2, 10]: 4.6 Wt. Percent
- Total Impurities [2, 11]: 0.42 area-percent
- Wt. Percent H2O [2, 11]: 4.8 Wt. Percent
- Total Impurities [2, 12]: 0.40 area-percent
- Wt. Percent H2O [2, 12]: 4.9 Wt. Percent
- Total Impurities [2, 6]: 0.35 area-percent
- Wt. Percent H2O [2, 6]: 5.4 Wt. Percent
- Total Impurities [2, 13]: 0.45 area-percent
- Wt. Percent H2O [2, 13]: 4.3 Wt. Percent
- Total Impurities [2, 14]: 0.47 area-percent
- Wt. Percent H2O [2, 14]: 4.5 Wt. Percent
- Total Impurities [2, 15]: 0.48 area-percent
- Wt. Percent H2O [2, 15]: 5.0 Wt. Percent
- Total Impurities [2, 16]: 0.39 area-percent
- Wt. Percent H2O [2, 16]: 4.8 Wt. Percent
- Total Impurities [2, 8]: 0.45 area-percent
- Wt. Percent H2O [2, 8]: 4.3 Wt. Percent
- Total Impurities [2, 17]: 0.35 area-percent
- Wt. Percent H2O [2, 17]: 5.4 Wt. Percent
- Change during the storage periods ([2]; all three storage conditions, up to 3 Month): did not change appreciably
- Total Impurities ([3]; 2 to 8° C., 1 Month): 0.27 area-percent
- Wt. Percent H2O ([3]; 2 to 8° C., 1 Month): 2.3 Wt. Percent
- Total Impurities ([3]; 2 to 8° C., 2 Months): 0.30 area-percent
- Wt. Percent H2O ([3]; 2 to 8° C., 2 Months): 2.6 Wt. Percent
- Total Impurities ([3]; 2 to 8° C., Initial): 0.29 area-percent
- Wt. Percent H2O ([3]; 2 to 8° C., Initial): 2.0 Wt. Percent
- Total Impurities [3, 10]: 0.34 area-percent
- Wt. Percent H2O [3, 10]: 2.4 Wt. Percent
- Total Impurities [3, 4]: 0.38 area-percent
- Wt. Percent H2O [3, 4]: 2.9 Wt. Percent
- Total Impurities [3, 6]: 0.29 area-percent
- Wt. Percent H2O [3, 6]: 2.0 Wt. Percent
- Total Impurities [3, 13]: 0.41 area-percent
- Wt. Percent H2O [3, 13]: 3.4 Wt. Percent
- Total Impurities [3, 7]: 0.40 area-percent
- Wt. Percent H2O [3, 7]: 3.2 Wt. Percent
- Total Impurities [3, 16]: 0.34 area-percent
- Wt. Percent H2O [3, 16]: 3.1 Wt. Percent
- Total Impurities [3, 8]: 0.34 area-percent
- Wt. Percent H2O [3, 8]: 3.2 Wt. Percent
- Total Impurities [3, 17]: 0.29 area-percent
- Wt. Percent H2O [3, 17]: 2.0 Wt. Percent
- Change during the storage periods [3, 9]: did not change appreciably
